Laboratory results reported in article PMC5983823, “Screening of Natural Product Derivatives Identifies Two Structurally Related Flavonoids as Potent Quorum Sensing Inhibitors against Gram-Negative Bacteria” (International Journal of Molecular Sciences, 2018).

Legend:
C. violaceum ATCC 31532 [1] = test: Violacein extraction assay (QS-mediated violacein production); type: cell-based, Chromobacterium violaceum; conditions: Chromobacterium violaceum, ATCC31532, 24 h, read-out: Inhibition-% of violacein production
Description: (§1) The initial screening of compound library was conducted using two strains of C. violaceum as model bacterium, and two assays (violacein extraction and resazurin staining) in parallel as recently optimized in [26]. For the screening assays, overnight cultures of C. violaceum were diluted in LB broth supplemented with yeast extract (LBY) (0.1% w/v, Sigma Aldrich, St. Louis, MO, USA). Culture of C. violaceum CV026 was further supplemented with 0.5 µM N-(β-ketocaproyl)-L-Homoserine lactone (3-O-C6-(L)-HSL, Cayman chemicals, Ann Arbor, MI, USA) to induce the violacein production. Bacteria (10^6 CFU/mL) was exposed to compounds (400 µM) in a total volume of 200 µL in 96-microtiter well plates (Nunc, Roskilde, Denmark), and incubated at 27 °C, with shaking at 200 rpm for 24 h. DMSO was added in untreated control wells and bacteria-free wells with only LBY were included controls. Additionally, autoinducer-free wells containing only bacteria were included in C. violaceum CV026 plates. Plates were prepared in duplicates. Quercetin dihydrate (Carl Roth GmbH, Karlsruhe, Germany) at 400 µM was used as positive control in violacein extraction assay, and azithromycin (Cayman chemicals, Ann Arbor, MI, USA) at 10 µM in viability assay. Both control compounds were prepared in DMSO. DMSO concentration was 2.5% throughout the experiments.
(§2) After incubation period of 24 h, plates were centrifuged (Allegra™ X-12R Benchtop centrifuge, Beckman Coulter Inc., Fullerton, CA, USA) at 3000 rpm for 10 min to precipitate the violacein. Supernatants were discarded from the wells by pipetting, and pellets were re-suspended in 200 μL of 96% ethanol by scraping and mixing followed by centrifugation (3000 rpm, 10 min). Thereafter, 100 μL of supernatants were transferred to sterile 96-microtiter well plates, and violacein was quantified by reading the optical density at 595 nm using Varioskan Flash. Inhibition of violacein production was expressed as inhibition percentages of the untreated biofilms (Equation (1)):Inhibition-% = [(untreated control OD595 − sample OD595)/(untreated control OD595 − media control OD595)] × 100%(1) in which untreated control = C. violaceum + DMSO, media control = LBY, and sample = C. violaceum treated with a compound. Later on, violacein extraction assay was also utilized for the determination of half inhibitory concentrations of the compounds.

C. violaceum CV026 = test: Violacein extraction assay (QS-mediated violacein production), mutant strain with exogenous autoinducer; type: cell-based, Chromobacterium violaceum; conditions: Chromobacterium violaceum, CV026, 24 h, read-out: Inhibition-% of violacein production
Description: as §1, §2

C. violaceum ATCC 31532 [2] = test: Violacein extraction assay (QS-mediated violacein production); type: cell-based; conditions: Chromobacterium violaceum, ATCC31532, read-out: Inhibition-% of violacein production
C. violaceum = tested on: C. violaceum; set-up: method as in PMID 27626397; conditions: cited from earlier work
[3] = tested on: Staphylococcus aureus biofilms; set-up: method as in PMID 24071942; conditions: cited from earlier work
cancer cell lines = tested on: cancer cell lines; set-up: method as in ref 56 = [56]; 56. National Center for Biotechnology Information PubChem BioAssay Database Available online: https://pubchem.ncbi.nlm.nih.gov/bioassay/924 (accessed on 28 March 2018); conditions: PubChem Bioassay database ref 56; cited from earlier work

Work on `O=c1cc(-c2ccccc2)oc2cc(O)c(O)cc12` [Compound 916, 6,7-dihydroxy-2-phenylchromen-4-one] yielded an inhibition at 400 µM (C. violaceum ATCC 31532 [1]) of 102%, an inhibition at 400 µM (C. violaceum CV026) of 95.7% and an inhibition at 40 µM (C. violaceum ATCC 31532 [2]) of 35.8 ± 1.1%. The “Anti-QS activity class in earlier screening” value (C. violaceum) was “moderately active”, the “Anti-biofilm activity against S. aureus” value [3] was “preventing biofilm formation and by eradicating pre-formed biofilms” and the Anti-cancer activity (cancer cell lines) was “inhibition of cancer cell lines”.
